“And” between values parts separate entries of the source, which are not always exact repeats. Identical values can stand only once. Like-named read-outs stand apart in the source and are kept apart here.
Experiments:
Type in all cases: cell-based
OR2M3 wt = target: T1, OR2M3 wt (Homo sapiens, UniProt Q8NG83); test: cAMP-luminescence GloSensor assay, recombinant OR2M3 wt; settings: OR2M3 wt
T1 construct: full-length gene-specific forward and reverse primers were added; 39aa rho-tag; expressed in transfected cells; host or cells: NxG 108CC15 or HEK-293 cells
T1 sequence (Q8NG83 1-312): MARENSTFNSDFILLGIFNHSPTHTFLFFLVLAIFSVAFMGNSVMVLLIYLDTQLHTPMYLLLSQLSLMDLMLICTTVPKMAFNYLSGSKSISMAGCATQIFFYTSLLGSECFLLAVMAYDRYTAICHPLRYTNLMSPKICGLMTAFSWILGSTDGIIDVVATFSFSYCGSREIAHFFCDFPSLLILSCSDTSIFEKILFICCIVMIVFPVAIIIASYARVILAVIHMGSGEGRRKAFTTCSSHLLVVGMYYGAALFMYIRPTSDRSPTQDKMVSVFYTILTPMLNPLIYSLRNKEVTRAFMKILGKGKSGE
Method: (§1) The assay was performed as reported above.
(§2) All data are presented as mean ± SD.

OR2M3 H244A = target: T2, OR2M3 H244A (Homo sapiens, UniProt Q8NG83, H244A); test: GloSensor assay, OR2M3 H244A; settings: OR2M3 His244 to alanine; in the absence or presence of Cu^2+
T2 construct: 39aa rho-tag; expressed in transfected cells; host or cells: NxG 108CC15 or HEK-293 cells
T2 sequence (Q8NG83 whole entry H244A): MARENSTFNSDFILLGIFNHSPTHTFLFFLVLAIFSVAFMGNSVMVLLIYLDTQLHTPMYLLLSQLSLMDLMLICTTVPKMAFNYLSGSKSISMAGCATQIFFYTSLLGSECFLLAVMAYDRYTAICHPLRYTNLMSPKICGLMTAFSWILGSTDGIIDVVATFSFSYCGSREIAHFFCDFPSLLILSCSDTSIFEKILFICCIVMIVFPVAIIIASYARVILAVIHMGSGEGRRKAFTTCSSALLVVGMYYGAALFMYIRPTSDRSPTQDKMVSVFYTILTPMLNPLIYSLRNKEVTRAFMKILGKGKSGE
Method: (§3) All receptor variants used were generated by PCR-based site-directed mutagenesis in two steps. Gene-specific primers (mutation primers) were used according to Table S2 and Table S3. The mutation primers, which carried the changed nucleotides, were designed overlapping.
as §1, §2

OR2M3 I207L = target: T3, OR2M3 I207L (Homo sapiens, UniProt Q8NG83, I207L); test: GloSensor assay, OR2M3 I207L; settings: OR2M3 I207L (SNP haplotype)
T3 construct: full-length gene-specific forward and reverse primers were added; 39aa rho-tag; expressed in transfected cells; host or cells: NxG 108CC15 or HEK-293 cells
T3 sequence (Q8NG83 whole entry I207L): as the sequence (Q8NG83 whole entry H244A) above, with I207L, A244H counted along it
Source text: as §3, §2
(§4) (a) Schematic snake diagram with localization of mutated amino acid positions within OR2M3, which have been chosen because of their close vicinity to putative interaction sites with odorants as proposed by Man et al. (red circles). Effects of 3-mercapto-2-methylpentan-1-ol on OR2M3 variants (black curves) with SNP-defined single amino acid changes at positions 104^3.32 (b), 206^5.45 (c), and 207^5.46 (d). Note that the same data set for 3-mercapto-2-methylpentan-1-ol on OR2M3 wt (grey, see also Fig. 1b, d) is given in panels (b)-(d) for didactic reasons. […] RLU = relative luminescence unit. 3MMP = 3-mercapto-2-methylpentan-1-ol.

OR2M3 T105A = target: T4, OR2M3 T105A (Homo sapiens, UniProt Q8NG83, T105A); test: GloSensor assay, OR2M3 T105A
T4 construct: 39aa rho-tag; expressed in transfected cells; host or cells: NxG 108CC15 or HEK-293 cells
T4 sequence (Q8NG83 whole entry T105A): as the sequence (Q8NG83 whole entry H244A) above, with T105A, A244H counted along it
Method: as §3, §1, §2

OR2M3 C203Y = target: T5, OR2M3 C203Y (Homo sapiens, UniProt Q8NG83, C203Y); test: GloSensor assay, OR2M3 C203Y; settings: in the absence or presence of Cu^2+
T5 construct: full-length gene-specific forward and reverse primers were added; 39aa rho-tag; expressed in transfected cells; host or cells: NxG 108CC15 or HEK-293 cells
T5 sequence (Q8NG83 whole entry C203Y): as the sequence (Q8NG83 whole entry H244A) above, with C203Y, A244H counted along it
Method: as §3, §1, §2

OR2M3 C241A = target: T6, OR2M3 C241A (Homo sapiens, UniProt Q8NG83, C241A); test: GloSensor assay, OR2M3 C241A; settings: OR2M3 Cys241 to alanine; in the absence or presence of Cu^2+
T6 construct: 39aa rho-tag; expressed in transfected cells; host or cells: NxG 108CC15 or HEK-293 cells
T6 sequence (Q8NG83 whole entry C241A): as the sequence (Q8NG83 whole entry H244A) above, with C241A, A244H counted along it
Method: as §3, §1, §2

OR2M3 C112A = target: T7, OR2M3 C112A (Homo sapiens, UniProt Q8NG83, C112A); test: GloSensor assay, OR2M3 C112A
T7 construct: 39aa rho-tag; expressed in transfected cells; host or cells: NxG 108CC15 or HEK-293 cells
T7 sequence (Q8NG83 whole entry C112A): as the sequence (Q8NG83 whole entry H244A) above, with C112A, A244H counted along it
Method: as §3, §1, §2

OR2M3 C203S = target: T8, OR2M3 C203S (Homo sapiens, UniProt Q8NG83, C203S); test: GloSensor assay, OR2M3 C203S; settings: 10 µmol/L Cu^2+, read-out: EC50 in the presence of Cu^2+
T8 construct: 39aa rho-tag; expressed in transfected cells; host or cells: NxG 108CC15 or HEK-293 cells
T8 sequence (Q8NG83 whole entry C203S): as the sequence (Q8NG83 whole entry H244A) above, with C203S, A244H counted along it
Method: as §3, §1, §2

OR2M3 Y104C = target: T9, OR2M3 Y104C (Homo sapiens, UniProt Q8NG83, Y104C); test: GloSensor assay, OR2M3 Y104C; settings: OR2M3 Y104C (SNP haplotype)
T9 construct: full-length gene-specific forward and reverse primers were added; 39aa rho-tag; expressed in transfected cells; host or cells: NxG 108CC15 or HEK-293 cells
T9 sequence (Q8NG83 whole entry Y104C): as the sequence (Q8NG83 whole entry H244A) above, with Y104C, A244H counted along it
Source text: as §3, §2, §4

OR2M3 C202S = target: T10, OR2M3 C202S (Homo sapiens, UniProt Q8NG83, C202S); test: GloSensor assay, OR2M3 C202S; settings: even in the presence of Cu^2+, agonist 20 µmol/L
T10 construct: full-length gene-specific forward and reverse primers were added; 39aa rho-tag; expressed in transfected cells; host or cells: NxG 108CC15 or HEK-293 cells
T10 sequence (Q8NG83 whole entry C202S): as the sequence (Q8NG83 whole entry H244A) above, with C202S, A244H counted along it
Method: as §3, §1, §2

OR2M3 M206I = target: T11, OR2M3 M206I (Homo sapiens, UniProt Q8NG83, M206I); test: GloSensor assay, OR2M3 M206I; settings: OR2M3 M206I (SNP haplotype)
T11 construct: 39aa rho-tag; expressed in transfected cells; host or cells: NxG 108CC15 or HEK-293 cells
T11 sequence (Q8NG83 whole entry M206I): as the sequence (Q8NG83 whole entry H244A) above, with M206I, A244H counted along it
Source text: as §3, §2, §4

OR2M3 C112S = target: T12, OR2M3 C112S (Homo sapiens, UniProt Q8NG83, C112S); test: GloSensor assay, OR2M3 C112S; settings: presence of copper 10 µmol/L, agonist 20 µmol/L
T12 construct: 39aa rho-tag; expressed in transfected cells; host or cells: NxG 108CC15 or HEK-293 cells
T12 sequence (Q8NG83 whole entry C112S): as the sequence (Q8NG83 whole entry H244A) above, with C112S, A244H counted along it
Method: as §3, §1, §2

OR2M3 C202A = target: T13, OR2M3 C202A (Homo sapiens, UniProt Q8NG83, C202A); test: GloSensor assay, OR2M3 C202A; settings: even in the presence of Cu^2+, agonist 20 µmol/L
T13 construct: 39aa rho-tag; expressed in transfected cells; host or cells: NxG 108CC15 or HEK-293 cells
T13 sequence (Q8NG83 whole entry C202A): as the sequence (Q8NG83 whole entry H244A) above, with C202A, A244H counted along it
Method: as §3, §1, §2

OR2M3 C203A = target: T14, OR2M3 C203A (Homo sapiens, UniProt Q8NG83, C203A); test: GloSensor assay, OR2M3 C203A; settings: even in the presence of Cu^2+, agonist 20 µmol/L
T14 construct: 39aa rho-tag; expressed in transfected cells; host or cells: NxG 108CC15 or HEK-293 cells
T14 sequence (Q8NG83 whole entry C203A): as the sequence (Q8NG83 whole entry H244A) above, with C203A, A244H counted along it
Method: as §3, §1, §2

[1] = 10 µmol/L Cu^2+, read-out: EC50 in the presence of Cu^2+
[2] = presence of copper 10 µmol/L, agonist 20 µmol/L

For `CCC(S)C(C)CO` (stereo not shown) [3-Mercapto-2-methylpentan-1-ol, 3-mercapto-2-methylpentan-1-ol], the EC50 (OR2M3 wt; 10 µmol/L Cu^2+, mean ± SD (n = 3–5), read-out: EC50 in the presence of Cu^2+) was 0.29 ± 0.1 µM, the Relative amplitude (OR2M3 wt; 30 µmol/L AgAc, normalized to wt signal without Cu^2+) was 5.72 ± 0.42 and the EC50 (OR2M3 wt; 30 µmol/L AgAc, read-out: EC50) was 0.87 ± 0.5 µM. The Relative amplitude (OR2M3 wt; 30 µmol/L AgNO3, normalized to wt signal without Cu^2+) was 6.41 ± 1.17, the EC50 (OR2M3 wt; 30 µmol/L AgNO3, read-out: EC50) was 1.49 ± 0.36 µM and the EC50 (OR2M3 wt; 30 µmol/L CoCl2, read-out: EC50) was 0.73 ± 0.26 µM. It also gave an EC50 (OR2M3 wt; 30 µmol/L CuCl2 + copper chelator TEPA, read-out: EC50) of 1.13 ± 0.36 µM, an EC50 (OR2M3 wt; 30 µmol/L FeCl3, read-out: EC50) of 1.67 ± 0.34 µM and an EC50 (OR2M3 wt; 30 µmol/L NiCl2, read-out: EC50) of 1.09 ± 0.63 µM. For the same molecule, the Relative amplitude (OR2M3 wt; 30 µmol/L ZnSO4, n.d. = no detectable response up to 60 µmol/L) was “complete loss-of-function”, the Relative amplitude (OR2M3 wt; 30 µmol/L colloidal Ag, normalized to wt signal without Cu^2+) was 3.52 ± 0.69 and the EC50 (OR2M3 wt; 30 µmol/L colloidal Ag, read-out: EC50) was 0.76 ± 0.35 µM. For the same molecule, the Hill coefficient (OR2M3 wt; absence of copper (n = 4)) was 0.89 ± 0.41, the Relative amplitude (OR2M3 wt; copper concentration 60 µmol, normalized to wt signal without Cu^2+) was 1.42 ± 0.64 and the EC50 (OR2M3 wt; copper concentration 60 µmol, read-out: EC50) was 1.47 ± 0.12 µM. For the same molecule, the Relative amplitude (OR2M3 wt; copper concentration 100 µmol, normalized to wt signal without Cu^2+) was 0.73 ± 0.48, the EC50 (OR2M3 wt; copper concentration 100 µmol, read-out: EC50) was 1.95 ± 0.3 µM and the EC50 (OR2M3 wt; no metal supplementation (w/o), mean ± SD (n = 3–5), read-out: EC50 in the absence of Cu^2+) was 0.45 ± 0.19 µM. The EC50 (OR2M3 wt; presence of 30 µmol/L CuCl2, read-out: EC50) was 0.55 ± 0.01 µM, the Hill coefficient (OR2M3 wt; presence of copper (10 µmol/L) (n = 4)) was 1.9 and 1.93 ± 0.71 and ~2 and the increase in amplitude (OR2M3 wt; supplementation with ionic or colloidal silver, 30 µmol/L) was “three-to-sixfold increase in amplitude”. For the same molecule, the Relative amplitude (OR2M3 wt; w/o metal, normalized to OR2M3 wt signal with 3-mercapto-2-methylpentan-1-ol (20 µmol/L) in the absence of Cu^2+ (reference)) was 1, the “agonist function in mutant receptor” value (OR2M3 H244A) was “not functional anymore” and the EC50 (OR2M3 I207L) was 1.41 ± 0.04 µM. For the same molecule, the EC50 (OR2M3 T105A; [1]) was 0.75 ± 0.27 µM, the “agonist function in mutant receptor” value (OR2M3 T105A; [2]) was “rescued” and the “agonist function in mutant receptor” value (OR2M3 C203Y) was “complete loss-of-function”. The “agonist function in mutant receptor” value (OR2M3 C241A) was “not functional anymore”, the EC50 (OR2M3 C112A; [1]) was 0.86 ± 0.004 µM and the “agonist function in mutant receptor” value (OR2M3 C112A; [2]) was “rescued”. The EC50 (OR2M3 C203S) was 3.16 ± 0.01 µM, the EC50 (OR2M3 Y104C) was 1.02 ± 0.18 µM and the “agonist function in mutant receptor” value (OR2M3 C202S) was “complete loss-of-function”. The “receptor function (response to agonist)” value (OR2M3 M206I) was “complete loss-of-function”, the “agonist function in mutant receptor” value (OR2M3 C112S) was “rescued” and the “agonist function in mutant receptor” value (OR2M3 C202A) was “complete loss-of-function”. For the same molecule, the “agonist function in mutant receptor” value (OR2M3 C203A) was “complete loss-of-function”.

Source: article PMC7256108 (Cellular and Molecular Life Sciences: CMLS, 2019)
